Assay [1] deals with Staphylococcus aureus 209p. The experiment in a line: MIC, plate method, standard strains. The assay is classed as cell-based. The settings on record: unit assumed. The protocol: (§1) The minimum inhibitory concentration (MIC) was determined by the plate method disclosed in "Chemotherapy" (Japan), Vol. 16, (1968), pages 98-99. The culture medium used was a Heart infusion agar (pH 7.4). The number of the cells per plate used in the inoculum was 10^4 (10^6 cells/ml).

The subject of another assay is Proteus vulgaris 3027. The experiment in a line: MIC, plate method, standard strains. Particulars: unit assumed. In kind it is cell-based. The protocol: as §1
The test system of assay [2] is Klebsiella pneumoniae. The experiment in a line: MIC, plate method, standard strains. The assay is classed as cell-based. The settings on record: unit assumed. As to the method: as §1
In assay [3] the test system is Pseudomonas aeruginosa I.F.O. The experiment in a line: MIC, plate method, standard strains. The assay is classed as cell-based. Particulars: unit assumed; for MIC Pseudomonas aeruginosa I.F.C: Table 3, standard strain. The protocol:
as §1

The test system of another assay is Escherichia coli NIHJ. The experiment in a line: MIC, plate method, standard strains. In kind it is cell-based. The settings on record: unit assumed; for MIC Esche--richin coil NIHJ: Table 3, standard strain. As to the method: as §1
A further assay has as its system Proteus morganii. The experiment in a line: MIC against clinical isolates. In kind it is cell-based. Particulars: Table 5-6, clinical isolate; unit assumed.
A further assay concerns Staphylococcus aureus. The experiment in a line: MIC against clinical isolates. In kind it is cell-based. Particulars: Table 5-1, clinical isolate; unit assumed.
The next assay has as its system Escherichia coli. The experiment in a line: MIC against clinical isolates. The settings on record: Table 5-2, clinical isolate; unit assumed. In kind it is cell-based.
Another assay concerns Proteus mirabilis. The experiment in a line: MIC against clinical isolates. Particulars: Table 5-6, clinical isolate; unit assumed. The assay is classed as cell-based.
In the next assay the test system is Shigella sonnei. The experiment in a line: MIC against clinical isolates. The assay is classed as cell-based. The settings on record: Table 5-5, clinical isolate; unit assumed. As to the method:
as §1
(§2) MIC was determined in the same manner as in the preceding paragraph (1).

The next assay concerns Shigella flexneri. The experiment in a line: MIC against clinical isolates. The assay is classed as cell-based. The settings on record: Table 5-5, clinical isolate; unit assumed. The protocol:
as §1, §2

Assay [4] deals with β-lactamase, Pseudomonas aeruginosa GN 238. The experiment in a line: Resistant activity against β-lactamase, iodometric assay. The settings on record: β-lactamase from Pseudomonas aeruginosa GN 238; Potassium Penicillin G = 100. The assay is classed as biochemical. The protocol:
(3) Resistant activity against β-lactamase, Pseudomonas aerugionsa GN 238:
The resistant activity of each compound against β-lactamase was measured in the manner described below.
β-Lactamase was prepared from Pseudomonas aeruginosa GN 238. This microorganism was cultured in 100 ml of a medium containing 2 g of yeast extract, 10 g of polypeptone, 2 g of glucose, 7 g of disodium hydrogen phosphate, 2 g of potassium dihydrogen phosphate, 1.2 g of ammonium sulfate and 0.4 g of magnesium sulfate, per liter, in a 500-ml Erlenmeyer flask for 6 hrs. at 37° C. with shaking. The resulting cells were collected by centrifugation (5,000 r.p.m.×10 min.), washed three times with 0.1 M phosphate buffer (pH 7.0). Subsequently, the cells were subjected to sonication (20 KHz, 20 min.) and then centrifuged at 15,000 r.p.m. for 60 min. By using the supernatant of enzyme fluid, the resistance of each compound against β-lactamase was determined by the iodometric assay method. Each numeral shown in Table 7 is a relative activity value calculated by assuming as 100 the activity of the control Potassium Penicillin G.

Another assay deals with Pseudomonas aeruginosa. The experiment in a line: MIC against clinical isolates. The settings on record: Table 5-3, clinical isolate; unit assumed. The assay is classed as cell-based.
Assay [5] deals with Klebsiella pneumoniae. The experiment in a line: MIC against clinical isolates. In kind it is cell-based. The settings on record: Table 5-4, clinical isolate; unit assumed.
Setting [6] is: Table 3, standard strain, Heart infusion agar pH 7.4.

Molecules are shown by their SMILES. ≈ marks a conversion by molar mass, not a printed value. Bounds are passed on as bounds.

For the compound `Cn1nnnc1SCC1=C(C(=O)O)N2C(=O)C(NC(=O)C(NC(=O)N3CCN(CCO)C(=O)C3=O)c3ccc(O)cc3)C2SC1` (single isomer, unassigned) [compound 83], the MIC Staphylococcus aureus 209p in assay [1] (Table 4, standard strain) amounted to 1.57 µg/mL (≈ 2.37 µM). For the same compound, the MIC Proteus vulgaris 3027 against Proteus vulgaris 3027 (Table 4, standard strain) was below 1.57 µg/mL. The MIC Klebsiella pneumoniae against Klebsiella pneumoniae [2] (Table 4, standard strain) was below 1.57 µg/mL. The same compound yielded an MIC Pseudomonas aeruginosa I.F.O. in [3] (Table 4, standard strain) of 25 µg/mL (≈ 37.8 µM). In addition, the MIC Escherichia coli NIHJ against Escherichia coli NIHJ (Table 4, standard strain) is below 1.57 µg/mL.
With `CC1(C)SC2C(NC(=O)C(NC(=O)N3CC(=O)NC(=O)C3)c3ccccc3)C(=O)N2C1C(=O)O` (centres unmarked) [compound 59], the MIC Staphylococcus aureus 209p in assay [1] (setting [6]) was below 1.57 µg/mL. Besides, the MIC Proteus vulgaris 3027 with Proteus vulgaris 3027 (Table 3, standard strain) is 3.13 µg/mL (≈ 6.39 µM). The compound further yielded an MIC Klebsiella pneumoniae with Klebsiella pneumoniae [2] (Table 3, standard strain) of 200 µg/mL (≈ 409 µM). In [3], this compound yielded an MIC Pseudomonas aeruginosa I.F.C of 25 µg/mL (≈ 51.1 µM). Also, in the assay with Escherichia coli NIHJ, the MIC Esche--richin coil NIHJ was below 1.57 µg/mL.
The compound `CC1(C)S[C@@H]2[C@H](NC(=O)[C@H](NC(=O)N3CC(=O)N(C(=O)c4ccccc4)CC3=O)c3ccccc3)C(=O)N2[C@H]1C(=O)O` [Compound 34] returned an MIC Proteus vulgaris 3027 against Proteus vulgaris 3027 (Table 3, standard strain) of 50 µg/mL (≈ 84.2 µM). Further, the MIC Klebsiella pneumoniae against Klebsiella pneumoniae [2] (Table 3, standard strain) is 50 µg/mL (≈ 84.2 µM). Also, the MIC Pseudomonas aeruginosa I.F.C in [3] amounted to 100 µg/mL (≈ 168 µM).
Turning to `CC1(C)S[C@@H]2[C@H](NC(=O)[C@H](N)c3ccccc3)C(=O)N2[C@H]1C(=O)O` [Sodium Ampicillin, reference compound], the MIC Proteus morganii against Proteus morganii is below 1.57 µg/mL. In the assay on Staphylococcus aureus, the MIC Staphylococcus aureus MS 8588 was 6.25 µg/mL, the MIC Staphylococcus aureus MS 8596 is 1.56 µg/mL, the MIC Staphylococcus aureus MS 8684 came out at 1.56 µg/mL and the MIC Staphylococcus aureus MS 8713 amounted to 3.13 µg/mL. Further, in the assay on Escherichia coli, the MIC Escherichia coli GN 3435 came to 3.13 µg/mL, the MIC Escherichia coli GN 3452 was 6.25 µg/mL, the MIC Escherichia coli GN 3481 is 6.25 µg/mL and the MIC Escherichia coli K-1 came out at 6.25 µg/mL. The compound also registered an MIC Escherichia coli K-2 against Escherichia coli of 6.25 µg/mL. The MIC Proteus mirabilis against Proteus mirabilis is below 1.57 µg/mL. Also, in the assay with Shigella sonnei, the MIC Shigella sonnei JS 11232 was above 200 µg/mL and the MIC Shigella sonnei JS 11755 is 6.25 µg/mL. In addition, the MIC Shigella flexneri JS 11839 against Shigella flexneri was 1.57 µg/mL.
In the assay with Proteus vulgaris 3027 (Table 3, standard strain), `CC1(C)S[C@@H]2[C@H](NC(=O)[C@H](NC(=O)N3CCN(C(=O)c4ccc(Cl)cc4)CC3=O)c3ccccc3)C(=O)N2[C@H]1C(=O)O` [Compound 8] registered an MIC Proteus vulgaris 3027 of 3.13 µg/mL (≈ 5.1 µM). The compound further gave an MIC Pseudomonas aeruginosa I.F.C in assay [3] of 100 µg/mL (≈ 163 µM).
On to `CCCCCCCCN1CCN(C(=O)N[C@@H](C(=O)N[C@@H]2C(=O)N3[C@@H]2SC(C)(C)[C@@H]3C(=O)O)c2ccccc2)CC1=O` [Compound 30], for which, in [4], the “Relative activity (%), resistant activity against β-lactamase” value is on record as 3%.
In the case of `CC1(C)S[C@@H]2[C@H](NC(=O)Cc3ccccc3)C(=O)N2[C@H]1C(=O)O` [Potassium Penicillin G, reference compound], the “Relative activity (%), resistant activity against β-lactamase” value in assay [4] was determined as 100%.
The compound `CCCCCCN1CCN(C(=O)N[C@@H](C(=O)N[C@@H]2C(=O)N3[C@@H]2SC(C)(C)[C@@H]3C(=O)O)c2ccccc2)C(=O)C1` [Compound 13] displayed an MIC Pseudomonas aeruginosa GN 2987 in the assay with Pseudomonas aeruginosa of 12.5 µg/mL (≈ 22.3 µM). For the same compound, the MIC Staphylococcus aureus 209p in assay [1] (setting [6]) was below 1.57 µg/mL. This compound had an MIC Proteus vulgaris 3027 against Proteus vulgaris 3027 (Table 3, standard strain) below 1.57 µg/mL. Further, the MIC Klebsiella pneumoniae against Klebsiella pneumoniae [2] (Table 3, standard strain) was below 1.57 µg/mL. In the assay on Escherichia coli NIHJ, this compound showed an MIC Esche--richin coil NIHJ below 1.57 µg/mL. In the assay on Staphylococcus aureus, this compound had an MIC Staphylococcus aureus F-1 of 12.5 µg/mL (≈ 22.3 µM), an MIC Staphylococcus aureus F-2 of 1.57 µg/mL (≈ 2.81 µM), an MIC Staphylococcus aureus F-4 of 6.25 µg/mL (≈ 11.2 µM) and an MIC Staphylococcus aureus MS 8588 of 3.13 µg/mL (≈ 5.59 µM). In the assay on Staphylococcus aureus, this compound showed an MIC Staphylococcus aureus MS 8596 of 3.13 µg/mL (≈ 5.59 µM), an MIC Staphylococcus aureus MS 8684 of 3.13 µg/mL (≈ 5.59 µM) and an MIC Staphylococcus aureus MS 8713 of 3.13 µg/mL (≈ 5.59 µM). Moreover, in the assay with Escherichia coli, the MIC Escherichia coli GN 3435 amounted to 3.13 µg/mL (≈ 5.59 µM), the MIC Escherichia coli GN 3452 came out at 3.13 µg/mL (≈ 5.59 µM), the MIC Escherichia coli GN 3481 worked out at 6.25 µg/mL (≈ 11.2 µM) and the MIC Escherichia coli K-1 worked out at 3.13 µg/mL (≈ 5.59 µM). Further, in the assay with Escherichia coli, the MIC Escherichia coli K-2 is 6.25 µg/mL (≈ 11.2 µM) and the MIC Escherichia coli K-4 came out at 6.25 µg/mL (≈ 11.2 µM). Further, in the assay with Shigella sonnei, the MIC Shigella sonnei JS 11232 came to 12.5 µg/mL (≈ 22.3 µM) and the MIC Shigella sonnei JS 11755 is 3.13 µg/mL (≈ 5.59 µM). In the assay with Shigella flexneri, this compound showed an MIC Shigella flexneri JS 11215 of 12.5 µg/mL (≈ 22.3 µM) and an MIC Shigella flexneri JS 11839 of 1.57 µg/mL (≈ 2.81 µM). In addition, in the assay on Klebsiella pneumoniae [5], the MIC Klebsiella pneumoniae GN 917 worked out at 12.5 µg/mL (≈ 22.3 µM) and the MIC Klebsiella pneumoniae GN 3850 turned out to be 6.25 µg/mL (≈ 11.2 µM).
`CC1(C)S[C@@H]2[C@H](NC(=O)[C@H](NC(=O)N3CC(=O)N(Cc4ccccc4)CC3=O)c3ccccc3)C(=O)N2[C@H]1C(=O)O` [Compound 35] had an MIC Pseudomonas aeruginosa I.F.C in [3] of 100 µg/mL (≈ 173 µM).

Source of the values: patent publication US4327097A, “Novel penicillins” (Toyama Chemical Co., Ltd., priority 1974, dated 1982).
